Source: patent publication US20040126385A1, “Methods and compositions for screening, diagnosing, or treating NF-kappaB related disease” (priority 2001, published 2004)

Assays:
ccD1 = experiment: Level of ccD1 by Western blot analysis; type: cell-based, mouse; conditions: CSMLO cells transfected with dnIkkβ
Text: FIG. 5. Inhibition of NF-κB activation and down stream events by stable expression of dominant-negative IκB-kinase β (dnIkkβ). (A Upper) dnIkkβ-Expressing transfectant cells by light microscopy (i), 4′,6-diamidino-2-phenylindole (DAPI)-stained nuclei (ii), and immunofluorescence with anti-FLAG antibody in the presence of the secondary antibody (iii). The positive signals show dnIkkβ-conjugated FLAG protein in the cytoplasm. (Lower) Processed vector-control plasmid-transfected CSMLO cells in which no FLAG protein could be detected (vi). (B Upper) Active NF-κB was determined by its [γ-^32P]DNA binding activity by EMSA, in three dnIkkβ-expressing stable transfectants (dnIkkβ1-1, dnIkkβ1-3, and dnIkkβ1-5) and (Lower) in parent CSMLO cells and vector control plasmid expressing transfectant (vect1-5). (C Upper) The level of ccD1 in the same three-dnIkkβ-expressing CSMLO and vector control transfected cells, as measured by Western blot analysis. (Lower) Actin analyzed similarly by immunodetection with anti-β-actin antibody that serves as a loading control.

[1] = tested on: tumor, liver, and lung tissues; experiment: Histology (H&E) of tumor, liver and lung tissues of tumor-bearing animals; type: in vivo, mouse
Text: FIG. 4. Histology of tissues from untreated and Go6976-treated tumor-bearing animals. Tumor growth and treatment conditions are the same as described for FIG. 1. Tumor, liver, and lung tissues from untreated and treated tumor bearing animals were dissected 11 days after the initiation of treatment and 32 days after implantation of the cells. Tissues were processed for hematoxylin/eosin (H&E) staining, examined under a light microscope, and photographed at the indicated magnifications. Arrows show mitotic cells in untreated tumor tissue. Residual tumor (T) and necrotic cells (N) of the treated tumor are shown. Stars in the treated block indicate pycnotic cells with apparent fragmentation and clumping of nuclear DNA.
(§1) Animal model. The tumorigenic potential of CSMLO and dnIkkβ-expressing stable transfectants was examined in female A-J mice 2-3 weeks old. For each mouse, 1.0 s×10^6 cells were implanted under the dorsal skin. Palpable tumors were consistently detected within 10-15 days following implantation of the cells. Body weight and tumor volumes (32) were monitored weekly. Go6976 (0.5 ml of 0.05 mM stock solution in 0.1% DMSO) was administered to each animal locally two times a week. The control group received the same volume of the solvent (0.5 ml of 0.1%).

[2] = Physical condition and lethality of treated mice; type: in vivo
Procedure: (§2) FIG. 2. Regression of tumors by Go6976. (A) CSMLO cells were implanted on day 0 (indicated by the arrow) as for FIG. 1. Go6976 was administered on day 21 (indicated by the arrow), locally under the tumors of the five animals with comparatively larger tumors (▪). Another five animals received the same volume of 0.1% DMSO (♦) on the same day, and the control group of five animals received nothing (□). (B) One representative of five animals from each group. Animals 1 and 2 are DMSO- and Go6976-treated non-tumor-bearing animals, respectively. Animal 3 is tumor-bearing and without treatment. Animals 4 and 5 represent tumor-bearing groups treated with DMSO and Go6976, respectively. Animal 6 is an A-J mouse that received nothing.
as §1

CSMLO-induced tumors = experiment: Tumor growth in mouse tumor model (CSMLO cells implanted in female A-J mice); type: in vivo
Procedure: FIG. 1. Inhibition of growth of tumors by Go6976. Tumors were generated in female A-J mice by implantation of CSMLO cells (10^6) on day 0 (indicated by the arrow). Go6976 (0.5 ml of 0.05 mM solution in 0.1% DMSO) was administered 48 h later to a group of five animals, twice a week locally at the site of implantation of cells (♦). Control group (five animals) received 0.5 ml of 0.1% DMSO similarly (□). Growth of tumors was monitored by measurements of tumor volume at regular intervals (32).
as §2
Animal model. […] Palpable tumors were consistently detected within 10-15 days following implantation of the cells. Body weight and tumor volumes (32) were monitored weekly. […]

NF-κB = experiment: Level of active NF-κB in nuclear extracts by EMSA; type: cell-based, mouse; conditions: CSMLO cells
Procedure: FIG. 3. Active NF-κB complex in CSMLO cells: Stimulation by PMA and inhibition by Go6976. (A) Nuclear extracts (5 μg protein) from control and PMA-treated (20 ng/ml for 18 h) CSMLO cells were incubated in a standard EMSA reaction mixture containing [γ-^32P]-labeled double-stranded oligonucleotide plus Go6976 at the indicated μM concentrations for […] and subjected to nondenaturing PAGE (7, 31). The autoradiographic signals of the retarded NF-κB-[^32 P]DNA complex is indicated by the upper arrow and the free [γ-^32P]-labeled probe by the lower arrow. (B) The NF-κB-[^32P]DNA complex was characterized by supershift assay with anti-p50 (lanes 3 and 4) or p65 (B, lanes 5 and 6) antibodies. Nuclear extracts were incubated with specific antibodies for 15 min at room temperature, followed by incubation for an additional 30 min in the presence of [γ-^32p] double-stranded NF-κB oligonucleotide, and subjected to EMSA as described (7, 31). The supershifted complexes are indicated by the upper arrow.
Methods. Measurements of the level of active NF-κB by EMSA. The level of active NF-κB in the nuclear extracts of control and treated cells was determined by its DNA binding activity by EMSA as described 7, 30, 31). The [^32P]DNA-protein complex was identified as a retarded radioactive band in EMSA detected by autoradiography. […]

CSMLO cells = experiment: Growth of CSMLO cells under culture conditions; type: cell-based, mouse; conditions: short-term drug treatment with 10 μM Go6976
Procedure: Materials. Mouse mammary adenocarcinoma cells in culture (CSMLO) were grown in complete medium supplemented with 10% FBS and growth factors as described (7, 11, 12). Anti-human ER antibody (SC543), anti-mouse ccD1 antibody, anti-p50, and anti-p65 antibodies for the NF-κB subunits were obtained from Santa Cruz Biotechnology. Rabbit polyclonal IgG raised against the conserved region of actin and anti-Flag (M2) monoclonal antibody were obtained from Sigma-Aldrich. The fluorescein-conjugated goat anti-mouse IgG was from Oncogene Science. Complementary strands of the oligonucleotide (5′-[…]-3′) containing the NF-κB motif (bold faced) were custom synthesized by Integrated DNA Technologies (Coralville, Iowa). The double-stranded NF-κB-oligonucleotide was end-labeled with [γ-^32P]ATP (NEN) and T4 kinase (New England Biolabs) as described (7), and was used for electrophoretic mobility shift assay (EMSA). Hydrocortisone, insulin, DTT, dimethyl sulfoxide (DMSO), and phenylmethylsulfonyl fluoride were obtained from Sigma. Hybond nitrocellulose membrane and ECL (enhanced chemiluminescence) immunodetection kits were obtained from Amersham Pharmacia. Go6976, a nonglyosidic indolcarbazole, and an inhibitor of protein kinase C alpha and beta was purchased from Calbiochem-Novabiochem (28, 29).

SMILES: Cn1c2ccccc2c2c3c(c4c5ccccc5n(CCC#N)c4c21)CNC3=O [Go6976]
- transactivation of ccD1 (ccD1): blocked transactivation of ccD1
- histological changes in tumor tissue ([1]; Go6976-treated tumor-bearing animals, 11 days after initiation of treatment): extensive necrosis
- pycnotic cells in residual tumor tissue (suggestive of DNA fragmentation and apoptosis) ([1]; treated animal, magnification 100×): a large number of pycnotic cells with nuclear clumping
- pathological changes in liver and lung tissue ([1]; tumor-bearing or non-tumor-bearing animals, localized Go6976 treatment): did not show any microscopically detectable pathological changes
- physical defects as judged by body weight and agility ([2]; mice without tumor treated with Go6976): did not show any apparent physical defects
- mouse lethality ([2]; mouse, in vivo): without mouse lethality
- tumor growth (tumor volume) (CSMLO-induced tumors; Go6976 0.5 ml of 0.05 mM in 0.1% DMSO, local, twice a week, started within 48 h of implantation of CSMLO cells, vs DMSO-treated group): substantial inhibition of tumor growth
- regression of full-grown tumors (tumor volume) (CSMLO-induced tumors; Go6976 administered locally 21 days after implantation of CSMLO cells, all of five animals): regressed sharply
- basal level of NF-κB (NF-κB): did not affect the basal level of NF-κB
- PMA-induced elevation of NF-κB activation (NF-κB; PMA 20 ng/ml, simultaneous treatment with Go6976 for 48 h): inhibited in a concentration-dependent manner
- growth of cells under culture conditions (CSMLO cells): not affected
